{"source": "patent US9993452B2", "about": "“Compositions and methods for treatment of inflammation” (Vireo Systems, Inc., priority 2014, dated 2018)", "key": {"[1]": {"system": "mouse macrophages", "settings": "cited from earlier work"}, "[2]": {"system": "vancomycin resistant Enterococcus faecium (“VRE”)", "settings": "addition to a growth medium; cited from earlier work"}, "[3]": {"system": "Gram negative and Gram positive bacteria", "settings": "addition to a growth medium; cited from earlier work"}, "[4]": {"system": "TNF-α mRNA", "experiment": "TNF-α mRNA expression in human T cell line Jurkat clone E6-1 (real-time RT-PCR)", "type": "cell-based", "procedure": "(§1) The mouse macrophage cell line, RAW 264.7 (American Tissue Type Culture Collection (ATCC); Manassas, Va.), was cultured in Dulbucco's modified Eagle's medium (DMEM; ATCC) supplemented with 10% heat inactivated fetal calf serum […] (Invitrogen; Carlsbad, Calif.), 100 μg/ml streptomycin and 100 U/ml penicillin (Invitrogen), and 2 mM L-glutamine (Invitrogen). The human T cell line, Jurkat clone E6-1 (ATCC) was cultured in RPMI-1640 medium (Invitrogen) supplemented as described above. The human monocyte cell line, THP-1 (ATCC) was cultured much like the Jurkat cultures plus the addition of 1 mM sodium pyruvate (Gibco-Invitrogen). THP-1 cells were stimulated with 200 nM of phorbol 12-myristate 13-acetate (PMA; Sigma-Aldrich, St. Louis, Mo.) for 48 hours to differentiate the cells into macrophage-like cells. Cells were then washed three times every 24 hours with fresh medium.\n(§2) Dose response experiments were performed following exposure of the RAW 264.7, Jurkat, and THP-1 cells to varying doses of creatinine HCl ([…]; Sigma-Aldrich). Control cultures contained no creatinine HCl, only growth medium. A dose of 10 mM creatinine HCl was chosen for use in these studies. The 10 mM concentration is physiologically relevant to individuals supplementing with 5 grams of creatine for their regimen and then converted into creatinine.\n(§3) RAW, Jurkat, and THP-1 cells were treated in 6-well plates at 80-90% confluent (4.14×10^6 cells/ml, 2.6×10^7 cells/ml, and 5.26×10^5 cells/ml, respectively). All cells were lysed in 1 ml of Trizol (Invitrogen). After homogenization, chloroform was added to samples and nucleic acids extracted per the manufacturer's instructions. Nucleic acids were precipitated with isopropyl alcohol (Fisher, Pittsburgh, Pa.). Following centrifugation, the resulting pellets were washed with 75% ethanol and air dried. RNA was re-suspended in 50 μl of UltraPure distilled water (Invitrogen). Residual DNA was removed from the samples by treatment with RQ1 DNase (Promega, Madison, Wis.) at 37° C. for 1 hour per the manufacturer's protocol. Samples were extracted with phenol:chloroform:[…] alcohol (25:24:1) (Invitrogen) and the RNA was precipitated with 1/10 volume of 3M sodium acetate (pH=5.2) and 3 volumes of 100% ethanol. Samples were frozen at […] for a minimum of 2 hours. After centrifugation, the samples were washed with 75% ethanol, air dried, and resuspended in 20 μl of UltraPure distilled water (Invitrogen) and stored at −80° C. until time of use, RNA was quantified using a NanoDrop-1000 Spectrophotometer with the program ND-1000 V3.8.1 (Thermo Fisher Scientific, Wilmington, Del.).\n(§4) Reverse transcription (Improm-II Reverse Transcription System, Promega) followed by real-time PCR analysis was performed in 20 μL volumes containing 1 μl of cDNA corresponding to 40 ng of DNase-treated RNA in the RT reaction, gene specific internal primers (0.5 μM of each primer), and 1× SsoFast EvaGreen Supermix (Bio-Rad, Hercules, Calif.). The primers were synthesized by Integrated DNA Technologies (IDT, Coralville, Iowa) and have 100% sequence homology to the […] or human genome. The primer sequences are listed below in Table 1.\n(§5) The PCR was performed using the following conditions: 95° C. for 30 sec, 40 cycles of 95° C. for 5 sec, and 57° C. for 5 sec using a CFX96 Real-Time Detection System (Bio-Rad), GAPDH was used as a housekeeping gene to normalize mRNA levels between samples. Data was analyzed using the Bio-Rad CFX Manager V1.6.541.1028 software (Bio-Rad). The calibrator in the experiments was the sample obtained from control-treated cells. Copy numbers of targeted mRNAs were expressed as ratios of GAPDH mRNA levels. Relative quantitation was determined by the comparative CT method (ΔΔCT method) in which the formula is expressed as: 2^−ΔΔCT(1).\n(§6) RT-PCR data was analyzed by two-way analysis of variance (ANOVA) with a Bonferroni's post-test. P values≤0.05 were considered statistically significant. […]"}, "[5]": {"system": "TNF-α protein", "experiment": "Immunohistochemical staining of TNF-α protein expression in mouse macrophage cells (RAW 264.7)", "type": "cell-based", "settings": "10 mM", "procedure": "as §1\nRAW cells were incubated with or without 10 mM creatinine (Sigma-Aldrich) for 24 or 48 hours. Staining was performed on cytospins which were fixed in cold acetone, air-dried, and rehydrated in phosphate buffered saline (PBS). Blocking was performed at room temperature for 20 minutes, followed by incubation with purified rat anti-mouse TNF-α antibody (BD Biosciences, San Diego, Calif.) overnight. […]"}, "[6]": {"system": "TLR-3", "settings": "mouse macrophages; cited from earlier work"}, "[7]": {"system": "TNF-α mRNA", "experiment": "TNF-α mRNA expression in human macrophage cell line THP-1 (real-time RT-PCR)", "type": "cell-based", "procedure": "as §1, §2\nRAW, Jurkat, and THP-1 cells were treated in 6-well plates at 80-90% confluent (4.14×10^6 cells/ml, 2.6×10^7 cells/ml, and 5.26×10^5 cells/ml, respectively). All cells were lysed in 1 ml of Trizol (Invitrogen). After homogenization, chloroform was added to samples and nucleic acids extracted per the manufacturer's instructions. Nucleic acids were precipitated with isopropyl alcohol (Fisher, Pittsburgh, Pa.). Following centrifugation, the resulting pellets were washed with 75% ethanol and air dried. […] After centrifugation, the samples were washed with 75% ethanol, air dried, and resuspended in 20 μl of UltraPure distilled water (Invitrogen) and stored at −80° C. until time of use, RNA was quantified using a NanoDrop-1000 Spectrophotometer with the program ND-1000 V3.8.1 (Thermo Fisher Scientific, Wilmington, Del.). […]\nas §5, with “The calibrator in the experiments was the sample obtained from control-treated cells.” left out\nRT-PCR data was analyzed by two-way analysis of variance (ANOVA) with a Bonferroni's post-test. […]"}, "[8]": {"system": "drug resistant Staphylococcus aureus (“MRSA”)", "settings": "addition to a growth medium; cited from earlier work"}, "[9]": {"system": "TLR-4", "settings": "mouse macrophages; cited from earlier work"}, "[10]": {"system": "TLR-2", "settings": "mouse macrophages; cited from earlier work"}, "[11]": {"system": "TNF-α mRNA", "experiment": "TNF-α mRNA expression in mouse macrophage cell line RAW 264.7 (real-time RT-PCR)", "type": "cell-based", "procedure": "as §1, §2, §3, §4, §5, §6"}, "[12]": {"system": "TLR-7", "settings": "mouse macrophages; cited from earlier work"}, "[13]": {"system": "fungi", "settings": "cited from earlier work"}, "[14]": {"settings": "rats, acute or chronic inflammation induced by inflammatory agents, different doses; cited from earlier work"}}}
{"molecule": "CN1CC(=O)N=C1N.Cl", "note": "[creatinine HCl, creatinine hydrochloride]", "values": [{"measurement": "cell death", "setting": "[1]", "value": "No alterations"}, {"measurement": "bacteria in growth medium", "setting": "[2]", "value": "decreased"}, {"measurement": "bacteria in growth medium", "setting": "[3]", "value": "decreased"}, {"measurement": "TNF-α mRNA levels, of the control level", "setting": "[4]; 10 mM, 20 minutes post-exposure, Jurkat", "value": 25, "unit": "%"}, {"measurement": "TNF-α mRNA levels", "setting": "[4]; 10 mM, 30 minutes post-exposure, Jurkat", "value": "began increasing"}, {"measurement": "TNF-α mRNA levels", "setting": "[4]; 10 mM, 60 minutes post-exposure, Jurkat", "value": "control levels"}, {"measurement": "TNF-α mRNA levels compared to the levels of control", "setting": "[4]; 10 mM, within 10 minutes of exposure, Jurkat", "value": 50, "unit": "%"}, {"measurement": "reduction of mRNA levels in human T cells", "setting": "[4]; about 10 mM, 20 minutes post-treatment", "value": "≤ 75", "unit": "%"}, {"measurement": "TNF-α protein signal (immunohistochemical staining) compared to control-treated cells", "setting": "[5]; 24 hours incubation", "value": "lower signals"}, {"measurement": "TNF-α protein signal (immunohistochemical staining) compared to control-treated cells", "setting": "[5]; 48 hours incubation", "value": "lower signals"}, {"measurement": "TLR-3 transcript levels", "setting": "[6]", "value": "reduced"}, {"measurement": "TNF-α mRNA levels, of the control levels", "setting": "[7]; 10 mM, 10 minutes post-exposure, THP-1", "value": 41, "unit": "%"}, {"measurement": "TNF-α mRNA levels", "setting": "[7]; 10 mM, 20 minutes post-exposure, THP-1", "value": "remained below those of control-treated cells"}, {"measurement": "TNF-α mRNA levels, of the control levels", "setting": "[7]; 10 mM, 60 minutes post-exposure, THP-1", "value": 50, "unit": "%"}, {"measurement": "bacteria in growth medium", "setting": "[8]", "value": "decreased"}, {"measurement": "TLR-4 transcript levels", "setting": "[9]", "value": "reduced"}, {"measurement": "TLR-2 transcript levels", "setting": "[10]", "value": "reduced"}, {"measurement": "TNF-α mRNA as compared to the control (100%)", "setting": "[11]; 10 mM, 10 minutes post-exposure, RAW 264.7", "value": 28, "unit": "%"}, {"measurement": "TNF-α mRNA as compared to the control (100%)", "setting": "[11]; 10 mM, 20 minutes post-exposure, RAW 264.7", "value": 13, "unit": "%"}, {"measurement": "TNF-α mRNA levels", "setting": "[11]; 10 mM, 40 minutes post-exposure, RAW 264.7", "value": "began to increase"}, {"measurement": "TNF-α mRNA as compared to the control (100%)", "setting": "[11]; 10 mM, 60 minutes post-exposure, RAW 264.7", "value": 47, "unit": "%"}, {"measurement": "decrease of TNF-α mRNA expression in mouse macrophages", "setting": "[11]; about 10 mM, about 10 minutes post-treatment", "value": "≥ 72", "unit": "%"}, {"measurement": "reduction of TNF-α mRNA expression in mouse macrophages", "setting": "[11]; about 10 mM, about 20 minutes post-treatment", "value": "≤ 87", "unit": "%"}, {"measurement": "TLR-7 transcript levels", "setting": "[12]", "value": "reduced"}, {"measurement": "growth of fungi", "setting": "[13]", "value": "does not affect"}]}
{"molecule": "CN1CC(=O)N=C1N", "note": "[creatinine]", "values": [{"measurement": "Edema", "setting": "[14]", "value": "decreased"}]}
{"molecule": "lipopolysaccharide [reference compound]", "values": [{"measurement": "TNF-α mRNA expression", "setting": "[4]; positive control, Jurkat, not shown in graphs", "value": "significant increase"}, {"measurement": "TNF-α mRNA expression", "setting": "[7]; positive control, THP-1, not shown in graphs", "value": "significant increase"}, {"measurement": "TNF-α mRNA expression", "setting": "[11]; positive control, RAW 264.7, not shown in graphs", "value": "significant increase"}]}
